Measurements published in patent US8232272B2, “Benzimidazoledihydrothiadiazinone derivatives as fructose-1,6-bisphosphatase inhibitors, and pharmaceutical compositions comprising same” (Merck Patent Gesellschaft mit beschränkter Haftung, priority 2007, dated 2012).
Counter-ions that a name gives are not always drawn.

Test system: rat hepatocyte primary cultures (hepatic glucose production)
Test: Hepatic production of glucose in rat hepatocyte primary cultures
Format: cell-based, Wistar rat
Conditions: rat hepatocytes incubated 3 hours with dihydroxyacetone (DHA) as substrate, control = DHA without compounds
Text: Effects of the Various Compounds Described Previously on the Hepatic Production of Glucose in Rat Hepatocyte Primary Cultures
The hepatocytes are isolated from Wistar rat liver via the collagenase perfusion technique described by Seglen (Methods Cell Biol. 1975; 13, 29-83). The cell viability is confirmed by the exclusion test with trypan blue. The isolated hepatocytes are suspended in a William's medium supplemented with foetal calf serum (10%) in 6-well plates. After a 4-hour attachment period, the medium is aspirated to remove the cell debris and replaced with a serum-free and glucose-free MEM medium. The hepatocytes are then cultured for 16 to 18 hours (37° C.; 5% CO2). At the end of culturing and after having aspirated the medium, the glucose production is measured by incubating the hepatocytes for 3 hours in a Krebs buffer supplemented with dihydroxyacetone (DHA) as neoglucogenesis substrate, in the presence or absence of the various compounds described previously. The amount of glucose in the medium is measured in each culture well via a test with glucose oxidase (GOD). The cell protein content is evaluated via the Lowry method. The results are expressed in nanomoles of glucose produced per mg of cell protein. The activity of the test compounds is expressed as a percentage of the control (production of glucose in the presence of DHA but without compounds).
Inhibition of Hepatic Glucose Production

Q: Which “Hepatic glucose production. % of the control at 30 μM” value (from here on “Hepatic glucose production. %”) does the source give for `COc1cccc(-c2nc3cc(C4=NNC(=O)SC4C)ccc3[nH]2)c1` (stereo not shown) [Example 26, 5-[2-(3-methoxyphenyl)-1H-benzimidazol-5-yl]-6-methyl-3,6-dihydro-2H-1,3,4-thiadiazin-2-one] here?
A: 38 % of the control

Q: With `COc1cc(-c2nc3cc(C4=NNC(=O)SC4C)ccc3[nH]2)ccc1[S+](C)[O-]` (stereo not shown) [Example 26-3, 5-{2-[3-methoxy-4-(methylsulfinyl)phenyl]-1H-benzimidazol-5-yl}-6-methyl-3,6-dihydro-2H-1,3,4-thiadiazin-2-one hydrochloride] as the compound, how does the “Hepatic glucose production. %” value read?
A: 34 % of the control

Q: Which “Hepatic glucose production. %” value does the source give for `CC1SC(=O)NN=C1c1ccc2[nH]c(-c3ccc(-n4ccnc4)cc3)nc2c1` (stereo not shown) [Example 26-4, 5-{2-[4-(1H-imidazol-1-yl)phenyl]-1H-benzimidazol-5-yl}-6-methyl-3,6-dihydro-2H-1,3,4-thiadiazin-2-one dihydrochloride] here?
A: 28 % of the control

Test system: not given
Test: not given
Conditions: not given

Q: With `COc1cccc(-c2nc3cc(C4=NNC(=O)SC4C)ccc3n2CC(C)C)c1` (stereo not shown) as the compound, how does the melting point read?
A: 100 to 105 °C

Q: Which melting point does the source give for `COc1cccc(-c2nc3cc(C4=NNC(=O)SC4)ccc3n2CC(C)C)c1` [Example 11, 5-[1-isobutyl-2-(3-methoxyphenyl)-1H-benzimidazol-5-yl]-3,6-dihydro-2H-1,3,4-thiadiazin-2-one] here?
A: 207 to 209 °C

Q: Which melting point does the source give for `CCn1c(-c2cccc(F)c2)nc2cc(C3=NNC(=O)SC3)ccc21` [Example 11-4, 5-[1-ethyl-2-(3-fluorophenyl)-1H-benzimidazol-5-yl]-3,6-dihydro-2H-1,3,4-thiadiazin-2-one] here?
A: 214 to 216 °C

Q: For `CCCC1SC(=O)NN=C1c1ccc2c(c1)nc(-c1cccc(C(F)(F)F)c1)n2C` (stereo not shown) [Example 11-5, 5-{1-methyl-2-[3-(trifluoromethyl)phenyl]-1H-benzimidazol-5-yl}-6-propyl-3,6-dihydro-2H-1,3,4-thiadiazin-2-one], which melting point is on record?
A: 190 to 192 °C

Q: For `CCn1c(-c2cccc(OC)c2)nc2cc(C3=NNC(=O)SC3)ccc21` [Example 11-6, 5-[1-ethyl-2-(3-methoxyphenyl)-1H-benzimidazol-5-yl]-3,6-dihydro-2H-1,3,4-thiadiazin-2-one], which melting point is on record?
A: 221 to 223 °C

Target: T1, recombinant human liver fructose-1,6-bisphosphatase (Homo sapiens, UniProt P09467)
T1 sequence (P09467 1-338): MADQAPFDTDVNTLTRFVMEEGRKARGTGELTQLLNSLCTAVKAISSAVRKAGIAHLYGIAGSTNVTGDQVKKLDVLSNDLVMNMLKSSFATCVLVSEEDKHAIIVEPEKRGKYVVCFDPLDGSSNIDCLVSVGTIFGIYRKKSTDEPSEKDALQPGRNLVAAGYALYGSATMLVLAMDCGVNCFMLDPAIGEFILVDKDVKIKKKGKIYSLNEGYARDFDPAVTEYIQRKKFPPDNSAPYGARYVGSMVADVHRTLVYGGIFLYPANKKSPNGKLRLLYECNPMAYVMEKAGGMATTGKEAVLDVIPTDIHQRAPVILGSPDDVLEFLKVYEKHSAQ
Test: Inhibition of recombinant human liver fructose-1,6-bisphosphatase (spectrophotometric coupled enzyme assay)
Format: biochemical
Conditions: 0.167 mM fructose-1,6-bisphosphate, pH 7.5, room temperature, 30 minutes at 340 nm, read-out: Inhibition of human F-1,6-BPase IC50
Text: […]

Q: With `CC1SC(=O)N(C(C)C)N=C1c1ccc2c(c1)nc(-c1cccc(F)c1)n2C` (stereo not shown) [Example 12-3, 5-[2-(3-fluorophenyl)-1-methyl-1H-benzimidazol-5-yl]-3-isopropyl-6-methyl-3,6-dihydro-2H-1,3,4-thiadiazin-2-one] as the compound, how does the IC50 read?
A: 7 µM

Q: For `CCCN1N=C(c2ccc3c(c2)nc(-c2cccc(F)c2)n3C)C(C)SC1=O` (stereo not shown) [Example 12-6, 5-[2-(3-fluorophenyl)-1-methyl-1H-benzimidazol-5-yl]-6-methyl-3-propyl-3,6-dihydro-2H-1,3,4-thiadiazin-2-one], which IC50 is on record?
A: 8.5 µM

Q: For `COc1cccc(-c2nc3cc(C4=NN(C)C(=O)SC4)ccc3n2C2CCCCCC2)c1` [Example 12-7, 5-[1-cycloheptyl-2-(3-methoxyphenyl)-1H-benzimidazol-5-yl]-3-methyl-3,6-dihydro-2H-1,3,4-thiadiazin-2-one], which IC50 is on record?
A: 36 µM

Q: With `COc1cc(-c2nc3cc(C4=NNC(=O)SC4C)ccc3[nH]2)ccc1[S+](C)[O-]` (stereo not shown) [Example 26-3, 5-{2-[3-methoxy-4-(methylsulfinyl)phenyl]-1H-benzimidazol-5-yl}-6-methyl-3,6-dihydro-2H-1,3,4-thiadiazin-2-one hydrochloride] as the compound, how does the IC50 read?
A: 6.4 µM

Q: With `CC1SC(=O)NN=C1c1ccc2[nH]c(-c3ccc(-n4ccnc4)cc3)nc2c1` (stereo not shown) [Example 26-4, 5-{2-[4-(1H-imidazol-1-yl)phenyl]-1H-benzimidazol-5-yl}-6-methyl-3,6-dihydro-2H-1,3,4-thiadiazin-2-one dihydrochloride] as the compound, how does the IC50 read?
A: 3.6 µM
